Measurements reported in patent US12371454B2, “Cyclic peptide compound having Kras inhibitory action” (priority 2019, dated 2025).
Starred links: 1 amine or outer side, 2 acyl side, 3 side chain; linkers in the order of their positions; H or OH if unused. Positions of bridges follow the written chain, without caps; N, C: chain ends. Non-standard residues stand in square brackets, D forms with d. Residues, ends and D or L forms follow the SMILES beside them. *: point of attachment. hPhe(3-Cl-4-CF3) = N[C@@H](CCc1ccc(C(F)(F)F)c(Cl)c1)C(=O)O; X29 = N#Cc1cc(CC[C@H](N[*:1])C(=O)[*:2])cc(Cl)c1Cl; NMePhe(2-CF3) = CN[C@@H](Cc1ccccc1C(F)(F)F)C(=O)O; 3Oxa8azabicyclo(3.2.1)octane = C1CC2COCC1N2*; NMePhe(4-Br) = CN[C@@H](Cc1ccc(Br)cc1)C(=O)O; NMePhe(4-Me) = CN[C@@H](Cc1ccc(C)cc1)C(=O)O; NMePhe(2-Me) = CN[C@@H](Cc1ccccc1C)C(=O)O; NMeGly(cPent) = CN[C@H](C(=O)O)C1CCCC1; NMeGly(cBu) = CN[C@H](C(=O)O)C1CCC1; NMeCha = CN[C@@H](CC1CCCCC1)C(=O)O; NMeChg = CN[C@H](C(=O)O)C1CCCCC1; NMeI = CC[C@H](C)[C@H](NC)C(=O)O; NMeD = CN[C@@H](CC(=O)O)C(=O)O; NMeL = CN[C@@H](CC(C)C)C(=O)O; NMeV = CN[C@H](C(=O)O)C(C)C; d(β3hA) = C[C@@H](N)CC(=O)O; NMeAbu = CC[C@H](NC)C(=O)O; NMeS = CN[C@@H](CO)C(=O)O; NMeA = CN[C@@H](C)C(=O)O; Piperidide = C1CCN(*)CC1; Pyrrolidide = C1CCN(*)C1; Ac5c = NC1(C(=O)O)CCCC1; Aze = O=C(O)[C@@H]1CCN1; Ac4c = NC1(C(=O)O)CCC1; Cyclobutyl = C1CC(*)C1; Sar = CNCC(=O)O; Propyl = CCC*

What was measured:
[1] = system: Human pancreatic cancer cell line AsPC-1; assay: Measurement of AsPC-1 cell growth inhibition (AsPC-1 CGI); assay type: cell-based; conditions: 96 h
Summary of the method: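 AsPC-1 cells in 15% FBS RPMI-1640 were exposed to test compound for 96 hours at 37° C, with CellTiter-Glo as endpoint.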

[2] = target: T1, Kras and SOS1 (biotin-tagged human Kras loaded with GDP, His-tagged human SOS1) (Homo sapiens, UniProt P01116, G12D); assay: Protein-protein interaction inhibition between Kras and SOS1 (KrasGl2D-SOS PPI) using AlphaScreen; assay type: binding; conditions: AlphaScreen; biotin-tagged human Kras loaded with GDP, His-tagged human SOS1; read-out: KRAS G12D-SOS PPI IC50
T1 construct: made in house; host or cells: E. coli (stated for Kras only)
Summary of the method: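 Kras was produced in E. coli, purified, then loaded with GDP. It was paired via streptavidin acceptor beads with His-SOS1 held on nickel donor beads, and proximity signal at 520-620 nm was read after 680 nm illumination.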

T1 sequence (P01116 1-188 isoform P01116-2 G12D): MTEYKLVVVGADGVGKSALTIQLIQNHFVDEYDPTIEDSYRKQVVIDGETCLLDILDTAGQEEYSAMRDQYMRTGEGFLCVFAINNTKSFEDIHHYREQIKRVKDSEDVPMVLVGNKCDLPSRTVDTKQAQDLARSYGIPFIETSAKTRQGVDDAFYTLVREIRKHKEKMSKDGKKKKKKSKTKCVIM

Row | SMILES | IC50 [1] | IC50 [2]
1 | CCCOC[C@H]1C(=O)N(C)CC(=O)N[C@@H](CCc2ccc(C(F)(F)F)c(Cl)c2)C(=O)N2CCC[C@H]2C(=O)NC2(CCCC2)C(=O)N(C)[C@@H](C2CCCCC2)C(=O)N(C)[C@H](C(=O)N2CCCC2)CC(=O)N(C)[C@@H](C2CCC2)C(=O)N[C@@H]([C@@H](C)CC)C(=O)N(C)CC(=O)N(C)CC(=O)N1C [Compound 126] ([NMeGly(cBu)]I[Sar][Sar][NMeS](Propyl)[Sar][hPhe(3-Cl-4-CF3)]P[Ac5c][NMeChg][NMeD]-Pyrrolidide; lactam N-11) | 50 to 100 nM | 0.5 nM
2 | CC[C@H](C)[C@@H]1NC(=O)[C@H](CC(C)C)N(C)C(=O)C[C@@H](C(=O)N(C)C)N(C)C(=O)[C@H]([C@@H](C)CC)N(C)C(=O)C2(CCCC2)NC(=O)[C@H](Cc2ccccc2C)N(C)C(=O)[C@H](CCc2ccc(C(F)(F)F)c(Cl)c2)NC(=O)CN(C)C(=O)[C@H](Cc2ccc(C)cc2)N(C)C(=O)[C@@H]2CCN2C(=O)[C@H](C)N(C)C1=O [Compound 1924] ([NMeL]I[NMeA][Aze][NMePhe(4-Me)][Sar][hPhe(3-Cl-4-CF3)][NMePhe(2-Me)][Ac5c][NMeI][NMeD]-NMe2; lactam N-11) | 100 to 500 nM | 5.1 nM
3 | CC[C@H](C)[C@@H]1NC(=O)[C@H](CC(C)C)N(C)C(=O)C[C@@H](C)NC(=O)[C@H](C2CCCC2)N(C)C(=O)C2(CCC2)NC(=O)[C@@H]2CCCN2C(=O)[C@H](CCc2ccc(C(F)(F)F)c(Cl)c2)NC(=O)CN(C)C(=O)[C@H](CC2CCCCC2)N(C)C(=O)CN(C)C(=O)CN(C)C1=O [Compound 1544] (cyclo([Ac4c][NMeGly(cPent)][d(β3hA)][NMeL]I[Sar][Sar][NMeCha][Sar][hPhe(3-Cl-4-CF3)]P)) | 100 to 500 nM | 5.6 nM
4 | CC[C@H](C)[C@@H]1NC(=O)[C@H](COC2CCC2)N(C)C(=O)C[C@@H](C(=O)N2CCCCC2)N(C)C(=O)[C@H](C2CCCCC2)N(C)C(=O)C2(CCCC2)NC(=O)[C@@H]2CCCN2C(=O)[C@H](CCc2ccc(C(F)(F)F)c(Cl)c2)NC(=O)CN(C)C(=O)[C@H](CC2CCCCC2)N(C)C(=O)CN(C)C(=O)CN(C)C1=O [Compound 699] ([NMeS](Cyclobutyl)I[Sar][Sar][NMeCha][Sar][hPhe(3-Cl-4-CF3)]P[Ac5c][NMeChg][NMeD]-Piperidide; lactam N-11) | 50 to 100 nM | 0.83 nM
5 | CC[C@H](C)[C@@H]1NC(=O)[C@H](CC(C)C)N(C)C(=O)C[C@@H](C)NC(=O)[C@H](C(C)C)N(C)C(=O)C2(CCCC2)NC(=O)[C@@H]2CCCN2C(=O)[C@H](CCc2ccc(C(F)(F)F)c(Cl)c2)NC(=O)CN(C)C(=O)[C@H](Cc2ccc(Br)cc2)N(C)C(=O)CN(C)C(=O)CN(C)C1=O [Compound 1625] (cyclo([Ac5c][NMeV][d(β3hA)][NMeL]I[Sar][Sar][NMePhe(4-Br)][Sar][hPhe(3-Cl-4-CF3)]P)) | 100 to 500 nM | 7.2 nM
6 | CC[C@H](C)[C@@H]1NC(=O)[C@H](CC(C)C)N(C)C(=O)C[C@@H](C(=O)N2CCCCC2)N(C)C(=O)[C@H](C(C)C)N(C)C(=O)C2(CCCC2)NC(=O)[C@@H]2CCCN2C(=O)[C@H](CCc2ccc(C(F)(F)F)c(Cl)c2)NC(=O)CN(C)C(=O)[C@H](Cc2ccccc2C(F)(F)F)N(C)C(=O)CN(C)C(=O)CN(C)C1=O [Compound 1579] ([NMeL]I[Sar][Sar][NMePhe(2-CF3)][Sar][hPhe(3-Cl-4-CF3)]P[Ac5c][NMeV][NMeD]-Piperidide; lactam N-11) | 100 to 500 nM | 8.2 nM
7 | CC[C@H](C)[C@@H]1NC(=O)[C@H](C)N(C)C(=O)C[C@@H](C(=O)N2CCCCC2)N(C)C(=O)[C@H](C(C)C)N(C)C(=O)C2(CCCC2)NC(=O)[C@@H]2CCCN2C(=O)[C@H](CCc2cc(Cl)c(Cl)c(C#N)c2)NC(=O)CN(C)C(=O)[C@H](CC2CCCCC2)N(C)C(=O)CN(C)C(=O)CN(C)C1=O [Compound 2071] ([NMeA]I[Sar][Sar][NMeCha][Sar][X29]P[Ac5c][NMeV][NMeD]-Piperidide; lactam N-11) | > 500 nM | 9.2 nM
8 | CCCOC[C@H]1C(=O)N(C)CC(=O)N[C@@H](CCc2ccc(C(F)(F)F)c(Cl)c2)C(=O)N2CCC[C@H]2C(=O)NC2(CCCC2)C(=O)N(C)[C@@H](C2CCCCC2)C(=O)N(C)[C@H](C(=O)N2C3CCC2COC3)CC(=O)N(C)[C@@H](CC)C(=O)N[C@@H]([C@@H](C)CC)C(=O)N(C)CC(=O)N(C)CC(=O)N1C [Compound 1956] ([NMeAbu]I[Sar][Sar][NMeS](Propyl)[Sar][hPhe(3-Cl-4-CF3)]P[Ac5c][NMeChg][NMeD]-{3Oxa8azabicyclo(3.2.1)octane}; lactam N-11) | 100 to 500 nM | 0.76 nM
